Reference: patent publication US8455546B2, “Medicament having promoting action on hepatocyte proliferation” (Josai University Educational Corporation, priority 2007, dated 2013)
Where two headings read alike, the source gives them in different places.

What was measured:
[1] = system: primarily cultured rat hepatocytes; experiment: Influence on cell density-dependent proliferation of primarily cultured rat hepatocytes; format: cell-based; conditions: cell densities 1-10×10^4 cells/cm^2; NIK-333 10^−9, trans 10^−7, GGP 10^−6 mol/L; four hours; FIG. 2
From the text: Hepatocytes isolated by the same method as that of Example 1 were inoculated at cell densities of 1, 2, 3.3, 5, 7, and 10×10^4 cells/cm^2. NIK-333 (10^−9 mol/L), trans (10^−7 mol/L), cis (10^−6 mol/L), GG (10^−7 mol/L), and GGP (10^−6 mol/L) were each added to the hepatocytes pre-cultured in the same manner as that of Example 1.

[2] = system: primarily cultured rat hepatocytes; experiment: Effect of promoting proliferation of primarily cultured rat hepatocytes (number of nuclei); conditions: FIG. 1; for effect of promoting proliferation of primarily cultured rat hepatocytes (number of nuclei): 10^−11 to 10^−7 (and 10^−8 as printed) mol/L, four hours after addition, 3.3×10^4 cells/cm^2, vs solvent control
Experimental: (§1) Wistar male rats (weight: 200 to 205 g) were used, and hepatocytes were isolated by the in situ collagenase perfusion technique according to the method of Seglen et al. (Methods. Cell Biol., 13, pp. 29-83, 1975). The isolated hepatocytes were suspended in the Williams' medium E (containing 0.1 μg/mL aprotinin, 100 U/mL of penicillin G, 0.1 mg/mL of streptomycin, and 0.1 nmol/L of dexamethasone) containing 5% bovine neonate serum 3 times for washing, and then inoculated on a collagen coated culture dish (35 mm Φ) at a cell density of 3.3×10^4 cells/cm^2. The cells were adhered to the culture dish by culturing them at 37° C. for 3 hours in the presence of 5% CO2 to prepare a primarily cultured hepatocyte cell line. Survival rate of the isolated hepatocytes was obtained by the trypan blue exclusion method, and those showing a survival rate not lower than 93% were used for the following experiments.
(§2) Four hours after the addition of the agents, number of nuclei was measured as follows. The hepatocytes were washed with PBS, and then added with 0.25 mL of a 0.1 mol/L citric acid solution containing 0.1% Triton X-100. The cells were incubated at 37° C. for 30 minutes to solubilize the cell membranes and thereby obtain naked nuclei. The same volume of a PBS solution containing 0.3% trypan blue was further added, and number of the stained nuclei was measured with a hemacytometer.

[3] = system: cell lines derived from human hepatoma (HuH-7, JHH-7, HLF, Hep G2); experiment: Influence on proliferation of cell lines derived from human hepatoma (WST-1 live cell count); format: cell-based; conditions: 10^−11 to 10^−7 mol/L, cultured overnight, FIG. 3
Experimental: The cells were inoculated on a 96-well plate at a cell density of 1×10^4 cells/mL, and cultured overnight at 37° C. in the presence of 5% CO2. […] The cells were cultured overnight at 37° C. in the presence of 5% CO2, and live cell count was measured. The live cell count was measured by using Cell Counting Kit (Wako Pure Chemical Industries). […] Absorbance was measured for each well at a measurement wavelength of 450 nm and a reference wavelength of 655 nm using a microplate reader.

[4] = system: 70% partially hepatectomized rat (PH rat); experiment: Liver regeneration in 70% partially hepatectomized rat (PH rat); format: in vivo; conditions: 0.4 mg/kg/day p.o.
Experimental: Hepatocyte proliferation promoting effect of NIK-333 was examined by using a 70% partially hepatectomized rat (partial hepatectomy: PH rat) as an in vivo experiment system.
Wistar male rats (weight: 130 to 170 g) were subjected to 70% partial hepatectomy according to the method of Higgins G. M. et al. (Arch. Pathol., 12, pp. 186-202, 1931) to prepare PH rats. NIK-333 (solvent was soybean oil, 0.4 mg/kg/day) was orally administered to these PH rats once per day, the administration was repeated and continued for 1 to 14 days, and reaction was observed over time. The model animals fed for 1 to 14 days after the hepatectomy were subjected to abdominal section under diethyl ether anesthesia, and the remaining livers were extracted. The remaining livers were separated into normal hepatic tissues and necrotizing hepatic tissues (liver tissues which were not excisable by the partial hepatectomy and remained), and weight of each was measured (wet weight). The examination was performed for three animals for each group, and the results are indicated as average±standard error. Student t-test was performed between a solvent administered group (soybean oil, 4 mL/kg, p.o.) as a control group and the NIK-333 administered group. The significance level of the test was set at 5% and 1% on both sides.

[5] = system: primarily cultured mouse hepatocytes; conditions: cited from earlier work
[6] = system: rat partially hepatectomized model; conditions: rat partially hepatectomized model (Non-patent document 9); cited from earlier work
[7] = system: hepatoma; conditions: long-term administration over one year (Non-patent document 6); cited from earlier work
[8] = system: primarily cultured rat hepatocytes
Experimental: as §1, §2

[9] = system: mouse liver carcinogenic model; conditions: reported; cited from earlier work

Row | SMILES | cell proliferation promoting action with increasing cell density [1] | effect of promoting proliferation of primarily cultured rat hepatocytes (number of nuclei) [2] | proliferation promotion action for human hepatoma cell strains (live cell count) [3] | recovery of liver weight compared with the control group ([4]; 1 to 14 days) | hyperproliferation exceeding the value of the Sham group ([4]; 14th day after PH) | increase rate of liver weight ([4]; 3 days after PH) | liver weight ([4]; 3 days after PH, g liver weight/100 g body weight) | effect on proliferation of primarily cultured mouse hepatocytes ([5]; at a concentration inducing apoptosis of hepatoma cells (Non-patent documents 7 and 8)) | DNA synthesis of regenerated liver [6] | recurrence of hepatoma after radical cure [7] | relative strength of the proliferation promoting effect among the tested agents ([2]; comparison of NIK-333, trans, cis, GG, GGP) | effect of promoting proliferation of primarily cultured rat hepatocytes (number of nuclei) [8] | proliferation of mouse hepatocytes ([5]; reported, no concentration given) | oncogenesis in mouse liver carcinogenic model [9]
1 | CC(C)=CCC/C(C)=C/CC/C(C)=C/CC/C(C)=C/COP(=O)(O)OP(=O)(O)O.N.N.N [GGP, geranylgeranyl pyrophosphate ammonium salt, reference compound] | decreased with the increase of the cell density | significant effect of promoting proliferation |  |  |  |  |  |  |  |  |  |  |  | 
2 | CC(C)=CCC/C(C)=C/CC/C(C)=C/C=C/C(C)=C/C(=O)O [NIK-333, (2E,4E,6E,10E)-3,7,11,15-tetramethyl-2,4,6,10,14-hexadecapentaenoic acid] | decreased with the increase of the cell density | significant effect of promoting proliferation | no proliferation promotion action | earlier recovery of liver weight | not observed | 85% | 3.0 g LW/BW | does not affect proliferation | delays DNA synthesis | significantly suppressed | strongest effect |  |  | 
3 | CC1=C(/C=C/C(C)=C/C=C/C(C)=C/C(=O)O)C(C)(C)CCC1 [trans, all-trans-retinoic acid] | gave the cell proliferation promoting action even when the cell density was increased |  |  |  |  |  |  |  |  |  |  | significant effect of promoting proliferation | induce the proliferation of mouse hepatocytes | promote oncogenesis
